Assay [1] deals with T1, CA125 protein (Homo sapiens, UniProt Q8WXI7).
T1 construct: purchased R&D Systems Inc, MN, USA
T1 sequence (Q8WXI7 12660-12923 limits assumed): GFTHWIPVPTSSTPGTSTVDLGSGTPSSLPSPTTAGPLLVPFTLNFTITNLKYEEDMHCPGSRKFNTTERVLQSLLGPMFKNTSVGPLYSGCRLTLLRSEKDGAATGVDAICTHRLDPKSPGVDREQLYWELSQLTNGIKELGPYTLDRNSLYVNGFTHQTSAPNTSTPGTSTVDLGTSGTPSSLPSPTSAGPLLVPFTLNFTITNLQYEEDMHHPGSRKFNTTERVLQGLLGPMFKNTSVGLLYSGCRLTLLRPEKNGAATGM
Kind of assay: ELISA assay of binding and specificity to CA125 protein. As to conditions: HRP-conjugated M13 antibody, TMB, FIG. 1. As to the method:
(§1) In order to evaluate the binding affinity and specificity of the discovered SEQ ID NO: 1 peptide to the CA125 protein, and the binding affinity and specificity of the SEQ ID NO: 2 peptide to HE4, ELISA assay was performed according to the manufacturer's instructions using CA125 protein (R&D Systems Inc, MN, USA), HE4 protein (Sinobiological, PA, USA), HRP-conjugated M13 antibody (Sinobiological, PA, USA), and TMB solution (Thermo Scientific, MA, USA). In addition, to measure the binding affinity Kd (dissociation constant), the discovered peptides of SEQ ID NO: 1 and SEQ ID NO: 2 were synthesized (Biostem, Suwon, Korea), CA125 protein and HE4 protein were each fluorescently labeled using Protein Labeling kit RED-NHS 2nd Generation (NanoTemper Technologies, Munich, Germany). Afterwards, the binding affinity between peptide and protein was measured using Monolith NT.115 (NanoTemper Technologies, Munich, Germany) according to the manufacturer's instructions.

The target in assay [2] is T1, CA125 protein. Kind of assay: Binding affinity Kd, synthesized peptide vs fluorescently labeled protein, Monolith NT.115. As to conditions: CA125 protein labeled RED-NHS, read-out: binding affinity Kd (dissociation constant). The protocol: as §1
In assay [3] the target is T2, HE4 protein (Homo sapiens, UniProt Q14508).
T2 construct: purchased Sinobiological, PA, USA
T2 sequence (Q14508 31-124): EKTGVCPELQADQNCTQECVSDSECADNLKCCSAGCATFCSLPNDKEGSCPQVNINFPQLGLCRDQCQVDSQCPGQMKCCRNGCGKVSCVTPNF
The assay can be described thus: ELISA assay of binding and specificity to HE4 protein. As to conditions: HRP-conjugated M13 antibody, TMB, FIG. 1. The protocol:
as §1
Background: ELISA stands for enzyme-linked immunosorbent assay.

The target in assay [4] is T2, HE4 protein. The assay can be described thus: Binding affinity Kd, synthesized peptide vs fluorescently labeled protein, Monolith NT.115. The conditions noted are these: HE4 protein labeled RED-NHS, read-out: binding affinity Kd (dissociation constant). As to the method:
as §1

No end group written: not given here.

Two substances from patent US20240353411A1, “HE4 DETECTING PEPTIDE AND USE THEREOF” (Ajou University Industry-Academic Cooperation Foundation, priority 2022, published 2024) can be followed below.

Turning to “HTHGAARVPDHR [SEQ ID NO: 1, HTHGAARVPDHR]”, the “specific binding to the CA125 protein” value on CA125 protein [1] is recorded as “specifically bound”. In addition, on CA125 protein [2], the Kd is 0.0114 ± 0.00423 µM.
For LGSKPIN [SEQ ID NO: 2, LGSKPIN], the “specific binding to the HE4 protein” value at HE4 protein [3] is “specifically bound”. For the same substance, the Kd at HE4 protein [4] turned out to be 15.3 ± 12 µM.

The term Kd denotes a measure of binding affinity in units of concentration.
